# Laboratory results published in ChEMBL document CHEMBL1153807, “An inhibitor of CCL2-induced chemotaxis from the fungus Leptoxyphium sp” (J Nat Prod, 2009).
# Calls of active or inactive are those of the source. No cut-off for these calls is given here.
# Columns and labels:
# Assay type in all cases: cell-based
# [1] = target: C-C chemokine receptor type 2 (Homo sapiens) (UniProt P41597); test: Inhibition of CCR2 in human monocytes assessed as CCL2-induced cell migration at 100 uM after 1.5 hrs by micro-Boyden chamber
# [2] = Cytotoxicity against human monocytes at 100 uM after 24 hrs; settings: monocyte
# [3] = target: C-C chemokine receptor type 2 (Homo sapiens) (UniProt P41597); test: Inhibition of CCR2 in human monocytes assessed as CCL2-induced cell migration at 10 uM after 1.5 hrs by micro-Boyden chamber
# [4] = target: C-C chemokine receptor type 2 (Homo sapiens) (UniProt P41597); test: Inhibition of CCR2 in human monocytes assessed as cell migration at 100 uM after 30 mins
# Chain of C-C chemokine receptor type 2 (Homo sapiens) (P41597 whole entry, looked up): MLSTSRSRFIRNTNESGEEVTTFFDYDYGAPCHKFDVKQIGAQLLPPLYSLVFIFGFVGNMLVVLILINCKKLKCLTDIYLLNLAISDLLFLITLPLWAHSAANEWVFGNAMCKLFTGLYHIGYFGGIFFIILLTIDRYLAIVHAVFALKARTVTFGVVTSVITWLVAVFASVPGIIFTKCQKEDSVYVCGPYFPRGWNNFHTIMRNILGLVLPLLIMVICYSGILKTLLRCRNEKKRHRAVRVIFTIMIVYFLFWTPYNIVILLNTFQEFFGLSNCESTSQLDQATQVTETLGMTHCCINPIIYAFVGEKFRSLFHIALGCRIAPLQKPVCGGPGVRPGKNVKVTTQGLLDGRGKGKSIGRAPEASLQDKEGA
Structure (SMILES),inhibition [1],Activity [2],inhibition [3],inhibition [4]
CC(C)C[C@@H]1C(=O)N[C@@H](Cc2c[nH]c3ccccc23)C(=O)N1C,inactive,Non-toxic,–,–
O=C1N[C@H](Cc2cc(Cl)c(O)c(Cl)c2)C(=O)N2CCC[C@H]12,–,Non-toxic,Active,–
CON1C(=O)C2NC(=O)[C@@]13Oc1cc(O)c(Cl)cc1[C@@H]3SS2,–,Toxic,–,–
O=C1N[C@@H](Cc2ccc(O)cc2)C(=O)N2CCC[C@@H]12,inactive,Non-toxic,–,inactive
